In one data set the target is T1, PDE1A (Homo sapiens, UniProt P54750).
T1 construct: purchased SignalChem
The data set can be described thus: In vitro detection of phosphodiesterase (PDE): PDE1A enzyme activity by fluorescence polarization immunoassay. Format: biochemical. The following applies: human-derived enzyme, cAMP or cGMP substrate; read-out: IC50s for PDE1. The method in brief:
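Human PDE1A (enzyme solution 3 pM) was preincubated 10 min at RT with compound in 10 mM Tris-HCl pH 7.5, 5 mM MgCl2, 0.01% Brij 35, 1 mM DTT, 1% DMSO, with Ca2+-calmodulin cofactor. Reaction ran 1 h at RT on […] cAMP or cGMP, then 90 min with antibody/tracer. FP at Ex/Em 620/688 was converted to AMP/GMP via standard curve to give IC50.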
Background: Polarisation of emitted light reports the rotation of a fluorescent probe.

A short description of data set [1]: Comparison of pharmacokinetics in Beagle dogs. Format: in vivo. The protocol: Test 2: Comparison of Pharmacokinetics in Beagle Dogs
In this study, male Beagle dogs were given the compounds of the examples and vinpocetine (as a control compound) by intravenous injection or oral administration, respectively, then the drug concentration in plasma at different time points was determined by the LC/MS/MS method, so as to investigate the pharmacokinetic characteristics of the two test drugs in Beagle dogs.
Eight healthy adult Beagle dogs with a weight of 7.0 to 10.83 kg (purchased from Beijing Marshall Biotechnology Co., Ltd.) were selected. The formulation for intravenous injection group was DMSO: PEG400: water=5:20:75. A solvent was added to the test compound which had been accurately weighed, after vortex oscillation and ultrasound, a clear solution with a final concentration of 1.0 mg/mL was obtained. The solution was filtered with a filter membrane of 0.22 μm and stored at room temperature for use. The formulation for oral administration group was PEG 400: Tween 80: H2O=40:10:50. A solvent was added to the test compound which had been accurately weighed, after vortex oscillation and ultrasound, a clear solution with a final concentration of 1.5 mg/mL was obtained. The formulations for both the intravenous injection and the oral administration were formulated on the day of administration. The intravenous dose was 1.0 mg/kg, and the oral dose was 3.0 mg/kg. The whole blood for each test compound was respectively taken at 0.083 (for intravenous injection only), 0.25, 0.5, 1, 2, 4, 6, 8 and 24 hours after administration. The whole blood was centrifuged (3000 g, 15 min, 4° C.) to obtain the plasma. The drug concentration in each plasma sample was determined by LC/MS/MS method. The data about drug concentration in plasma was processed by WinNonlin™ Version 6.3 (Pharsight, Mountain View, Calif.) software, using a non-compartmental model, and the pharmacokinetic parameters were calculated by using the linear-logarithmic trapezoidal method.

In data set [2] the test system is pentylenetetrazole-kindling model of epilepsy. Kind of data set: Inhibition effect on pentylenetetrazole-kindling model of epilepsy in cynomolgus monkey. Format: in vivo. The following applies: 10 mg/kg. From the text: Test 3: Inhibition Effect on Pentylenetetrazole-Kindling Model of Epilepsy in Cynomolgus Monkey In this test, six male cynomolgus monkeys were selected, and each monkey was intragastrically administrated by nasal feeding. Besides pentylenetetrazole which was administrated by subcutaneous injection, the compound of Example 29 and carbamazepine were consecutively administered for 8 days, respectively. The monkeys were respectively given a solvent prior to the first administration, and were injected subcutaneously with pentylenetetrazole immediately after the last administration. The administration interval between two tests was about 10 days. Pentylenetetrazine was administered once to induce epilepsy prior to the first administration of the compound of Example 29. The dosage was calculated according to the latest weight of the animal, and the date of first administration was designated as Day 1. Surgical procedure: the animals were fed adaptively for at least one week in feeding facilities, and then they were anesthetized during preoperative preparation according to the company standards. The main operation procedures were as follows: cutting the head skin, fully exposing the skull, stripping the periosteum, and cleaning the skull surface with a dry absorbent cotton; drilling 2 holes on the skull of the cynomolgus monkey with cranial drill, implanting a brain electrode, and fixing it with dental cement; then burying two myoelectric electrodes into the neck muscles of the cynomolgus monkey, and burying eye-electric electrodes into the bilateral eye muscles, fixing the implant body in the abdominal muscle layer. Postoperative care was performed according to the company standards. The raw data was collected by Ponemah of DSI system, and analyzed and revised by Neuronscore. The data was shown by mean±standard error (Mean±SEM), statistical analysis was performed by t-test and ANOVA. P<0.05 indicated a significant difference, P<0.01 indicated a very significant difference, P<0.001 indicated an extremely significant difference. The characteristics of electroencephalic response and electroencephalic energy for pentylenetetrazole-kindling epilepsy were observed and analyzed, and then a comparison was made between Example 29 and carbamazepine in terms of the latency for the onset of epilepsy seizure, and the times and lasting time of clonic convulsions and tonic convulsions in cynomolgus monkey pentylenetetrazole-kindling model, so as to compare the pharmacodynamic inhibitory effect of Example 29 and carbamazepine on cynomolgus monkey pentylenetetrazole-kindling model. After the cynomolgus monkeys were injected subcutaneously with 40 mg/kg pentylenetetole on the back and were induced epilepsy-like behaviors, the electroencephalic response, electromyogrphic response and locomotor activity were detected by DSI wireless remote sensing signal recording system. […] The behaviors were divided into paroxysmal activity, clonic convulsion and tonic convulsions according to the status of epilepsy. The changes of electroencephalic energy within 4-24 Hz were statistically analyzed when cynomolgus monkeys suffered epileptic seizure within 24 hours after injection of pentylenetetrazole.

Setting [3] is: within 24 hours, versus Vehicle group.

The record followed here is US10017507B2, “Diaza-benzofluoranthrene compounds” (HARBIN PHARMACEUTICAL GROUP CO., LTD. GENERAL …, priority 2015, dated 2018).

A value given as a limit tells only on which side of the number the result lay.

The term clearance denotes the volume of plasma or blood freed of the substance per unit of time. One may read the half-life as how long it takes for the measured level to halve. The term bioavailability denotes the share of a dose that reaches the circulation, judged against a reference dose that is usually intravenous.

As to `CC[C@@]12C=C(c3nc(C)no3)n3c4c(c5ccc(S(=O)(=O)NC)cc53)CCN(CCC1)[C@H]42` [Example 76, (4^1S,13aS)-13a-ethyl-N-methyl-12-(3-methyl-1,2,4-oxadiazol-5-yl)-2,3,4^1,5,6,13a-hexahydro-1H-indolo[3,2,1-de]pyrido[3,2,1-ij][1,5]naphthyridin-9-sulfonamide], the IC50 at PDE1A lay in the range of 1 to 20 µM.

`CC[C@@]12C=C(c3nc(C)no3)n3c4c(c5ccc(S(=O)(=O)N(C)C)cc53)CCN(CCC1)[C@H]42` [Example 77, (4^1S,13aS)-13a-ethyl-N,N-dimethyl-12-(3-methyl-1,2,4-oxadiazol-5-yl)-2,3,4^1,5,6,13a-hexahydro-1H-indolo[3,2,1-de]pyrido[3,2,1-ij][1,5]naphthyridin-9-sulfonamide]: the IC50 at PDE1A lay within 20 to 100 µM.

As for `CC[C@@]12C=C(c3nc(C)no3)n3c4c(c5cc(S(=O)(=O)N(C)C)ccc53)CCN(CCC1)[C@H]42` [Example 80, (4^1S,13aS)-13a-ethyl-N,N-dimethyl-12-(3-methyl-1,2,4-oxadiazol-5-yl)-2,3,4^1,5,6,13a-hexahydro-1H-indolo[3,2,1-de]pyrido[3,2,1-ij][1,5]naphthyridin-8-sulfonamide], the IC50 on PDE1A fell in the range of 20 to 100 µM.

For the compound `CC[C@@]12C=C(c3nc(C)no3)n3c4c(c5c(S(=O)(=O)NC)cccc53)CCN(CCC1)[C@H]42` [Example 82, (4^1S,13aS)-13a-ethyl-N-methyl-12-(3-methyl-1,2,4-oxadiazol-5-yl)-2,3,4^1,5,6,13a-hexahydro-1H-indolo[3,2,1-de]pyrido[3,2,1-ij][1,5]naphthyridin-7-sulfonamide], at PDE1A, the IC50 was 20 to 100 µM.

For the compound `CC[C@@]12C=C(c3nc(C)no3)n3c4c(c5c(S(=O)(=O)N(C)C)cccc53)CCN(CCC1)[C@H]42` [Example 83, (4^1S,13aS)-13a-ethyl-N,N-dimethyl-12-(3-methyl-1,2,4-oxadiazol-5-yl)-2,3,4^1,5,6,13a-hexahydro-1H-indolo[3,2,1-de]pyrido[3,2,1-ij][1,5]naphthyridin-7-sulfonamide], the IC50 on PDE1A was 20 to 100 µM.

For `CCOC(=O)C1=C[C@]2(CC)CCCN3CCc4c(n1c1ccccc41)[C@@H]32` [Vinpocetine, reference compound], the “area under the concentration-time curve (0-inf)” value in data set [1] (intravenous injection 1 mg/kg) is 588 nM·h. The same compound returned a clearance in data set [1] (male, dog, plasma, intravenous injection 1 mg/kg) of 4.83 L/h/kg. The half-life in data set [1] (male, dog, plasma, intravenous injection 1 mg/kg, read-out: Half-life period (converted)) is 6.03 h. Besides, in data set [1] (male, dog, plasma, oral administration 3 mg/kg), the bioavailability turned out to be 12.3%. Moreover, in data set [1] (oral administration 3 mg/kg), the Peak concentration was found to be 142 nM, the “Time to Peak” value came out at 0.5 h and the “area under the concentration-time curve (0-inf)” value was 216 nM·h.

For `NC(=O)N1c2ccccc2C=Cc2ccccc21` [carbamazepine, reference compound], in data set [2] (8 days, versus Vehicle group), the “latency prolonged than the Vehicle group” value is given as 20.34 min and the “latency, relative increase versus Vehicle group” value is given as 81%. Moreover, the “latency for the onset of epilepsy seizure” value in data set [2] (continuous administration of 8 days, pentylenetetrazole 40 mg/kg s.c., Mean±SEM) was 45.20 ± 9.11 min. In addition, in data set [2] (pentylenetetrazole-kindled, Mean±SEM), the “lasting time of clonic convulsions and tonic convulsions” value was 4.71 ± 2.35 min. Besides, in data set [2] (versus Vehicle group), the “lasting time of convulsions shortened compared with the Vehicle Group” value is on record as 6.97 min and the “lasting time of convulsions, relative reduction versus Vehicle Group” value turned out to be 60%. Moreover, the “times of clonic convulsion and tonic convulsion” value in data set [2] (within 24 hours after pentylenetetrazol, Mean±SEM) was found to be 39.20±14.92. Also, in data set [2] (setting [3]), the “times of clonic and tonic convulsion reduced compared with the Vehicle Group” value was “about 68 times”; the “times of clonic and tonic convulsion, relative reduction versus Vehicle Group” value amounted to 63%.

As for “(4^1S,13aS)-13a-ethyl-12-(1-methyl-1H-pyrazol-3-yl)-2,3,4^1,5,6,13a-hexahydro-1H-indolo[3,2,1-de]pyrido[3,2,1-ij][1,5]naphthyridine, and (4^1S,13aS)-13a-ethyl-12-(1-methyl-1H-pyrazol-5-yl)-2,3,4^1,5,6,13a-hexahydro-1H-indolo[3,2,1-de]pyrido[3,2,1-ij][1,5]naphthyridine [Example 46]”, on PDE1A, the IC50 was in the range of 20 to 100 µM.

On to “(4^1S,13aS)-13a-ethyl-N-(3-methoxylpropyl)-12-(3-methyl-1,2,4-oxadiazol-5-yl)-2,3,4,5,6,13a-hexahydro-1H-indolo[3,2,1-de]pyrido[3,2,1-ij][1,5]naphthyridin-7-sulfonamide [Example 84]”, for which, at PDE1A, the IC50 is over 100 µM.

Turning to “(4^1S,13aS)-13a-ethyl-N-(3-methoxylpropyl)-12-(3-methyl-1,2,4-oxadiazol-5-yl)-2,3,4^1,5,6,13a-hexahydro-1H-indolo[3,2,1-de]pyrido[3,2,1-ij][1,5]naphthyridin-8-sulfonamide [Example 81]”, at PDE1A, the IC50 is 20 to 100 µM.

Take “(4^1S,13aS)-13a-ethyl-N-(3-methoxylpropyl)-12-(3-methyl-1,2,4-oxadiazol-5-yl)-2,3,4^1,5,6,13a-hexahydro-1H-indolo[3,2,1-de]pyrido[3,2,1-ij][1,5]naphthyridin-9-sulfonamide [Example 78]”: at PDE1A, the IC50 lay within 20 to 100 µM.

“(4^1S,13aS)-13a-ethyl-N-methyl-12-(3-methyl-1,2,4-oxadiazol-5-yl)-2,3,4^1,5,6,13a-hexahydro-1H-indolo[3,2,1-de]pyrido[3,2,1-ij][1,5]naphthyridin-8-sulfonamide [Example 79]”: on PDE1A, the IC50 was 1 to 20 µM.
